Where two headings read alike, the source gives them in different places.
What was measured:
P-gp [1] = molecular target: T1, P-gp (Homo sapiens, UniProt P08183); conditions: Varma et al., 2003; cited from earlier work
PNECCs = test: 0.4% trypan blue cell survival assay in PNECCs; assay type: cell-based, human
Description: PNECC cells were exposed to 23 hours of stimulation with lipopolysaccharide (LPS, 0.05 mg/mL), which is a toll-like receptor 4 agonist and capable of eliciting a strong immune responses. Control cells were considered those exposed to culture medium alone (BEGM). A 0.4% trypan blue (Sigma, St. Louis, MO) cell survival assay was used to ensure the stimulant exposures were not cytotoxic. In all wells, less than 20% of cells were stained blue indicating greater than 80% survival of the cells. Following the LPS exposures, the media was removed from each well.
Cells were exposed to 23 hours of stimulation with LPS (0.05 mg/mL) with or without concomitant P-gp inhibition by PSC 833(8 micM), which was applied to cells 1 hour prior to LPS treatment. Control wells were considered those exposed to culture medium alone (BEGM). A 0.4% trypan blue (Sigma, St. Louis, MO) cell survival assay was used to ensure the stimulant and inhibitor exposures were not cytotoxic. In all wells less than 20% of cells were stained blue indicating greater than 80% survival. Following the LPS and PSC 833 exposures, the media was removed from each well. Cytokine concentrations for IL-6, IL-8, GM-CSF, and TSLP in each well were determined by ELISA according to the manufacturer guidelines (eBioscience, San Diego, CA). […]

HSNECC cells = assay type: cell-based; conditions: human, 24 h, 8 µM
Description: (§1) For P-gp mediated cytokine secretion testing, HSNECC cells were exposed to 0.05 mg/mL LPS stimulation for 23 hours with or without concomitant P-gp inhibition using PSC 833 (8 μM), which was applied one hour prior to LPS stimulation. Control wells were considered those exposed to culture medium alone (BEGM). A 0.4% trypan blue (Sigma, St. Louis, MO) cell survival assay was used to ensure the stimulant and inhibitor exposures were not cytotoxic. In all wells less than 20% of cells were stained blue indicating greater than 80% survival. Following the LPS and PSC 833 exposures, the media was removed from each well. Cytokine concentrations for GM-CSF, IL-6, IL-8, and IL-25 in each well were determined by ELISA according to the manufacturer guidelines (GM-CSF, IL-6, IL-8 eBioscience, San Diego, CA; IL-25 Assay Biotechnology, San Francisco, CA). Cytokine concentrations were normalized to total media protein concentrations using a Pierce BCA Protein Assay Kit.

P-gp [2] = molecular target: T1, P-gp; test: Intracellular dexamethasone retention in primary sinonasal epithelial cells (CRSwNP); assay type: cell-based; conditions: LPS stimulated, three patients
Description: These cultured primary sinonasal epithelial cells were stimulated with lipopolysaccharide (LPS) in the presence or absence of the P-gp inhibitor PSC 833.

P-gp [3] = assay type: cell-based, human; conditions: PNECCs, mean
Description: Following removal of media from each well, the cytoplasmic and membranous protein fractions were isolated using a two-step extraction assay (DualXtract, Bulldog Bio, Inc., Portsmouth, NH). Membrane bound P-gp was quantified by subjecting the membranous fraction to ELISA (USCN Life Sciences Inc., Wuhan, P.R. China) and normalized to the cytoplasmic protein concentration.
In some wells, a specific P-gp inhibitor (PSC 833 8 micM, Tocris Bioscience, Bristol, UK) was applied to the cells 1 hour prior to LPS stimulation. Following the LPS and PSC 833 treatment, the media was removed from each well, and ELISA was performed to quantify membrane bound P-gp.

[4] = test system: IL-6, IL-8, GM-CSF, TSLP secretion in PNECCs; test: LPS stimulated cytokine secretion (ELISA) in PNECCs; assay type: cell-based, human; conditions: mean; for normalized IL-6 secretion: normalized to total media protein
Description: Cells were exposed to 23 hours of stimulation with LPS (0.05 mg/mL) with or without concomitant P-gp inhibition by PSC 833(8 micM), which was applied to cells 1 hour prior to LPS treatment. Control wells were considered those exposed to culture medium alone (BEGM). A 0.4% trypan blue (Sigma, St. Louis, MO) cell survival assay was used to ensure the stimulant and inhibitor exposures were not cytotoxic. In all wells less than 20% of cells were stained blue indicating greater than 80% survival. Following the LPS and PSC 833 exposures, the media was removed from each well. Cytokine concentrations for IL-6, IL-8, GM-CSF, and TSLP in each well were determined by ELISA according to the manufacturer guidelines (eBioscience, San Diego, CA). Cytokine concentrations were normalized to total media protein concentrations using a Pierce BCA Protein Assay Kit.

[5] = test system: GM-CSF, IL-6, IL-8, IL-25 secretion in HSNECCs; test: P-gp mediated cytokine secretion testing (ELISA) in HSNECCs; assay type: cell-based, human
Description: as §1

P-gp [6] = molecular target: T1, P-gp; test: Steroid release from nasal polyp explants after dexamethasone incubation; assay type: cell-based; conditions: polyp explants after 30-minute dexamethasone 0.05 mg/mL; PSC 833 (804) vs media alone
Description: The ability of nasal polyp explants to retain steroid after a 30-minute incubation in dexamethasone (0.05 mg/mL, n=6) was examined. Following incubation, polyp explants were placed either in media alone or in media containing the P-gp inhibitor PSC 833 (804) and the amount of steroid released by the explants into the surrounding media was measured.

GM-CSF secretion = GM-CSF secretion in LPS stimulated CRSwNP primary sinonasal epithelial cells with dexamethasone; assay type: cell-based, human; conditions: LPS 0.0125 mg/ml
Excerpt: The increase in intracellular corticosteroid concentration potentiates its anti-inflammatory effect. Primary sinonasal epithelial cell culture was derived from patients with chronic sinusitis with nasal polyps (CRSwNP) and stimulated with LPS, a component of gram negative bacterial cell walls.

P-gp [7] = test: ELISA of membrane-bound P-glycoprotein in CRSwNP HSNECCs; assay type: cell-based, human; conditions: LPS 0.05 mg/mL, ng/mL normalized to total cytoplasmic protein (mcg/mL) per FIG. 17B
Description: Human sinonasal nasal epithelial cell cultures (HSNECCs) from five patients were grown from nasal polyps as previously described. Briefly, polyp samples were washed and digested in Pronase for 90 minutes at 37° C. Cell suspensions were separated from particulate matter by centrifugation and resuspended in BEGM. Cells were plated for 2 hours on standard tissue culture plates to remove contaminating fibroblasts. Cells were then expanded for 3-5 days on collagen coated 75 cm^2 dishes (Corning Life Sciences, Corning, NY). Once confluent, the HSNECCs were trypsinized and re-seeded evenly on human collagen type IV-coated 6-well and 96-well tissue culture plates. 6-well cultures were grown to 80% confluence in BEGM prior to cytokine and protein analysis. 96-well plates intended for the dose dependent inhibition assay were grown to 100% confluence. Cells intended for immunohistochemistry were grown on tissue culture treated coverslips.
Membrane-bound P-glycoprotein in HSNECCs was quantified as follows. After removal of media from each well, the cytoplasmic and membranous protein fractions were isolated using a two-step extraction assay (DualXtract, Bulldog Bio, Inc., Portsmouth, NH).

P-gp [8] = test: Q-FIHC for membranous P-gp expression in PNECCs; assay type: cell-based, human; conditions: LPS 0.05 mg/mL, 23 h
Description: Exclusion criteria included the following: diagnosis of chronic sinusitis, use of oral steroids or immunotherapy within the preceding 4 weeks, aspirin sensitivity, ciliary dysfunction, autoimmune disease, cystic fibrosis, or any known immunodeficiency. All tissues were derived from schneiderian mucosa within the middle meatus.
Mucosal biopsies were washed and digested in Pronase for 90 minutes at 37° C. Cell suspensions were separated from particulate matter by centrifugation and resuspended in basal epithelial growth medium (BEGM) (Lonza, Basel, Switzerland). Cells were plated for 2 hours on standard tissue culture plates to remove contaminating fibroblasts. Cells were then expanded for 3-5 days on collagen coated 75 cm 2 dishes (Corning Life Sciences, Corning, NY). Once confluent, the PNECCs were trypsinized and re-seeded evenly on human collagen type IV-coated 6-well tissue culture plates. Cultures were grown to 80% confluence in BEGM prior to testing. PNECC cells intended for immunohistochemistry were grown on tissue culture treated coverslips placed within the wells. […]
Q-FIHC for membranous P-gp expression was performed using previously described techniques (Kirkeby et al., 2005). […] The mean corrected luminosity was considered the staining intensity (calculated using Image J v1.45s) divided by the total number of pixels subtended by the cells.

[9] = LPS 0.05 mg/mL + PSC 833 8 micM
[10] = LPS 0.05 mg/mL + PSC 833 8 μM, no inhibition

T1 sequence (P08183 whole entry): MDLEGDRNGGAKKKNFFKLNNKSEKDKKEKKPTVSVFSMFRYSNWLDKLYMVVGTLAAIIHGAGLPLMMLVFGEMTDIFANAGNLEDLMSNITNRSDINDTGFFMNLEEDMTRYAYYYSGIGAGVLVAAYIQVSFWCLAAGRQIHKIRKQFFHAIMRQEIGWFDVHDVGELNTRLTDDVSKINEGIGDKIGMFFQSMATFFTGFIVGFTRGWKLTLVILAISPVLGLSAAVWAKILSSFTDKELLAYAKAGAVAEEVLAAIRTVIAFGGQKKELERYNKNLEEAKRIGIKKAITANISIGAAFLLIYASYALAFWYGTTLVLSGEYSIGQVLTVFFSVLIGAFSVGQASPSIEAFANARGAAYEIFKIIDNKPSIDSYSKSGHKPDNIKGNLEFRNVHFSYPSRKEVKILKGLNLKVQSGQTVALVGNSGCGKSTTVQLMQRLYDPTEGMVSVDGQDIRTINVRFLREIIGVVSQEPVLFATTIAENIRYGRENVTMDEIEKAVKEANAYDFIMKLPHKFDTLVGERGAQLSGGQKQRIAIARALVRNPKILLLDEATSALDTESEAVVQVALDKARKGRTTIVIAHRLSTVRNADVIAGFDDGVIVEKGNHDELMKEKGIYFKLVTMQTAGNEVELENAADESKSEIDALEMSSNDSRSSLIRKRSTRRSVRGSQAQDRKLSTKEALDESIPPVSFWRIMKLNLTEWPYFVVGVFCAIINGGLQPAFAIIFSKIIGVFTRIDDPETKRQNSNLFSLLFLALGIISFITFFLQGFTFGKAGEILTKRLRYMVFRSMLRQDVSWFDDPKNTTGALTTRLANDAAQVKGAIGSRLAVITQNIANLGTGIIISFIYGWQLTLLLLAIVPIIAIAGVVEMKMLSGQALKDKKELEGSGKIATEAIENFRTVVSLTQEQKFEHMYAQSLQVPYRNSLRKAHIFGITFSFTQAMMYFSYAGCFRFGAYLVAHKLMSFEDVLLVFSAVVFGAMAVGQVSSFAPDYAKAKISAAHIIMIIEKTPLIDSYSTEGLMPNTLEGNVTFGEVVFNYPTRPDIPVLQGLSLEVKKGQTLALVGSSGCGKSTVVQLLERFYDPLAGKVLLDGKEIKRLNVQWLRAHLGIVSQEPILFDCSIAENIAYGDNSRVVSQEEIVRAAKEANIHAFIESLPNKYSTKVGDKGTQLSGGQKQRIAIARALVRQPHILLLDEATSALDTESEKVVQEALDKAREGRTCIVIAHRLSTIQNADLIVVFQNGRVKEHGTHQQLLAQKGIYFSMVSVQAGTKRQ

## CCOC/C=C/c1ccc(-c2nc(-c3ccc(NC(C)C)cc3)c(-c3ccc(NC(C)C)cc3)[nH]2)cc1 [OC144093, 4-[2-[4-[(E)-3-ethoxyprop-1-enyl]phenyl]-4-[4-(propan-2-ylamino)phenyl]-1H-imidazol-5-yl]-N-propan-2-ylaniline]
P-gp [1]
  potency relative to the first and second-generation P-gp inhibitors: about 10 fold

## C/C=C/C[C@@H](C)C(=O)[C@H]1C(=O)N[C@@H](C(C)C)C(=O)N(C)CC(=O)N(C)[C@@H](CC(C)C)C(=O)N[C@@H](C(C)C)C(=O)N(C)[C@@H](CC(C)C)C(=O)N[C@@H](C)C(=O)N[C@H](C)C(=O)N(C)[C@@H](CC(C)C)C(=O)N(C)[C@@H](CC(C)C)C(=O)N(C)[C@@H](C(C)C)C(=O)N1C [PSC 833, 6-[(2S,4R,6E)-4-methyl-2-(methylamino)-3-oxo-6-octenoic acid]-7-L-valine-cyclosporin A]
PNECCs; human, 24 h, 8 µM
  cell survival (trypan blue): greater than 80%
HSNECC cells
  cell survival (trypan blue): greater than 80%
P-gp [2]
  intracellular dexamethasone retention relative to dexamethasone alone: increased intracellular dexamethasone retention
P-gp [3]; LPS + PSC 833 8 micM applied 1 hour prior to LPS, not significant vs LPS alone (p=0.115)
  normalized membranous P-gp (ELISA, normalized to cytoplasmic protein): 70.40
[4]; [9]
  normalized GM-CSF secretion: 7.64
  normalized TSLP secretion: 5.13
  normalized IL-6 secretion: 37.60
[4]; LPS 0.05 mg/mL + PSC 833 8 micM, reduction not significant (p=0.313)
  normalized IL-8 secretion: 801.09
[5]; LPS 0.05 mg/mL + PSC 833 8 μM
  secretion of GM-CSF normalized to total media protein: 8.47+/−3.28 pcg/mL normalized to total med
  secretion of IL-6 normalized to total media protein: 39.94+/−31.07 pcg/mL normalized to total med
[5]; [10]
  secretion of IL-8 normalized to total media protein: 1608.41+/−471.94 pcg/mL normalized to total med
  secretion of IL-25 normalized to total media protein: 0.073+/−0.038 pcg/mL normalized to total med
P-gp [6]
  steroid release by explants into surrounding media: statistically significant decrease
GM-CSF secretion; PSC833 (804) + dexamethasone 0.1 mg/mL
  GM-CSF secretion compared to dexamethasone treatment alone: reduced GM-CSF secretion

## COc1cc2c(cc1OC)CN(CCc1ccc(NC(=O)c3cc(OC)c(OC)cc3NC(=O)c3cnc4ccccc4c3)cc1)CC2 [XR9576, N-[2-[[4-[2-(6,7-Dimethoxy-3,4-dihydro-1H-isoquinolin-2-yl)ethyl]phenyl]carbamoyl]-4,5-dimethoxyphenyl]quinoline-3-carboxamide]
P-gp [1]
  potency relative to the first and second-generation P-gp inhibitors: about 10 fold

## lipopolysaccharide [LPS]
PNECCs; PNECCs, LPS 0.05 mg/mL, 23 hours
  cell survival (trypan blue): greater than 80%
P-gp [3]; LPS 0.05 mg/mL alone, 23 h
  normalized membranous P-gp (ELISA, normalized to cytoplasmic protein): 19.63
[4]; LPS 0.05 mg/mL alone, 23 h
  normalized GM-CSF secretion: 39.92
  normalized IL-8 secretion: 912.91
  normalized TSLP secretion: 6.65
  normalized IL-6 secretion: 79.67
[5]; LPS 0.05 mg/mL alone, 23 hours
  secretion of GM-CSF normalized to total media protein: 45.21+/−41.39 pcg/mL normalized to total med
  secretion of IL-6 normalized to total media protein: 63.16+/−36.37 pcg/mL normalized to total med
  secretion of IL-8 normalized to total media protein: 1041.17+/−550.52 pcg/mL normalized to total med
  secretion of IL-25 normalized to total media protein: 0.075+/−0.039 pcg/mL normalized to total med
P-gp [7]
  mean normalized concentration of membranous P-gp (ELISA): 22.23+/−10.22
P-gp [8]
  mean corrected luminosity of membranous P-gp (Q-FIHC): 9.64
GM-CSF secretion
  GM-CSF secretion versus unstimulated control cells: increased GM-CSF secretion

— patent publication US12268726B2, “Treatment of rhinosinusitis with P-glycoprotein inhibitors” (Massachusetts Eye and Ear Infirmary, priority 2012, dated 2025)
